± gives the expanded uncertainty stated by the source.
What was measured:
[1] = 101 kPa, Liquid; for speed of sound: Sing-around technique in a fixed-path interferometer; for mass density: Vibrating tube method
[2] = refractive index (Na D-line) (dimensionless); conditions: 298.15 K; 101.33 kPa; Liquid; Standard Abbe refractometry
[3] = xn = mol fraction of the nth substance listed; conditions: 101 kPa, Liquid; for mass density: Vibrating tube method; for speed of sound: fixed-path interferometer

CC(C)CC(C)(C)C [2,2,4-trimethylpentane]
[1]
Conditions	mass density [kg/m3]	speed of sound [m/s]
298.15 K	687.68 ± 0.18	1082.7 ± 1.2
308.15 K	679.45 ± 0.18	1041.1 ± 1.2
318.15 K	671.3 ± 0.18	1000.1 ± 1.2
328.15 K	663.17 ± 0.18	959.4 ± 1.2

Conditions	refractive index
[2]	1.38901 ± 0.00072

CC(C)CC(C)(C)C [2,2,4-trimethylpentane] + Cc1ccccc1
[3]
Conditions	mass density, 298.15 K [kg/m3]	mass density, 308.15 K [kg/m3]	mass density, 318.15 K [kg/m3]	mass density, 328.15 K [kg/m3]	speed of sound, 298.15 K [m/s]	speed of sound, 308.15 K [m/s]	speed of sound, 318.15 K [m/s]	speed of sound, 328.15 K [m/s]
x1 = 0.2055	811.87 ± 0.14	802.88 ± 0.15	793.92 ± 0.15	784.96 ± 0.15	1235.8 ± 1.2	1193.6 ± 1.2	1151.9 ± 1.2	1110.8 ± 1.2
x1 = 0.403	772.32 ± 0.15	763.58 ± 0.16	754.88 ± 0.16	746.18 ± 0.16	1184.2 ± 1.2	1142.3 ± 1.2	1100.9 ± 1.2	1060.1 ± 1.2
x1 = 0.6062	738.6 ± 0.16	730.06 ± 0.17	721.58 ± 0.17	713.11 ± 0.17	1142.4 ± 1.2	1100.5 ± 1.2	1059.3 ± 1.2	1018.7 ± 1.2
x1 = 0.8001	711.48 ± 0.17	703.11 ± 0.17	694.81 ± 0.18	686.51 ± 0.18	1110 ± 1.2	1068.4 ± 1.2	1027.2 ± 1.2	986.7 ± 1.2

CCCCO [butan-1-ol]
[1]
Conditions	mass density [kg/m3]	speed of sound [m/s]
298.15 K	805.74 ± 0.15	1239.9 ± 1.2
308.15 K	798.07 ± 0.15	1206.6 ± 1.2
318.15 K	790.38 ± 0.15	1173.4 ± 1.2
328.15 K	782.58 ± 0.15	1140.4 ± 1.2

Conditions	refractive index
[2]	1.39733 ± 0.00072

CCCCO [butan-1-ol] + CC(C)CC(C)(C)C
[3], x2 = 0
Conditions	mass density [kg/m3]	speed of sound [m/s]
298.15 K	805.74 ± 0.15	1239.9 ± 1.2
308.15 K	798.07 ± 0.15	1206.6 ± 1.2
318.15 K	790.38 ± 0.15	1173.4 ± 1.2
328.15 K	782.58 ± 0.15	1140.4 ± 1.2

Cc1ccccc1 [toluene]
[1]
Conditions	mass density [kg/m3]	speed of sound [m/s]
298.15 K	862.19 ± 0.13	1305.4 ± 1.2
308.15 K	852.88 ± 0.14	1262.7 ± 1.2
318.15 K	843.6 ± 0.14	1220.4 ± 1.2
328.15 K	834.29 ± 0.14	1178.6 ± 1.2

Conditions	refractive index
[2]	1.49393 ± 0.00072

Cc1ccccc1 [toluene] + CCCCO
[3], x1 = 1
Conditions	mass density [kg/m3]	speed of sound [m/s]
298.15 K	862.19 ± 0.13	1305.4 ± 1.2
308.15 K	852.88 ± 0.14	1262.7 ± 1.2
318.15 K	843.6 ± 0.14	1220.4 ± 1.2
328.15 K	834.29 ± 0.14	1178.6 ± 1.2

— the NIST ThermoML archive (doi:10.1016/j.jct.2013.05.009)
